In patent US5385918A, “Aminomethylene-peptides as immunosuppressants” (Miles Inc., priority 1993, dated 1995):

Key:
FKBP = FKBP (Homo sapiens, UniProt P62942); test: PPIase Inhibition Assay; assay type: biochemical; conditions: inhibition of PPIase activity of FKBP, substrate Succinyl-Ala-Phe-Pro-Phe-para-nitroanilide
Method: This assay follows in principle the procedure described in Kofron et al., 1991, Biochemistry 30:6127. The three main reagents used are PPIase, a substrate for PPIase, and a selected inhibitor compound of the present invention. The basic principle behind this assay is the conversion of the cis isomer of the substrate to the trans form, which conversion is catalyzed by PPIase. Essentially, inhibition of this PPIase activity is measured for the selected compounds. A peptide chymotrypsin substrate containing a proline in the P2 position is only cleaved by chymotrypsin when the Phe-Pro bond is in the trans isomeric configuration. In the presence of excess chymotrypsin, all of the trans peptide isomers are cleaved within approximately five seconds, leaving only cis forms.
The cis peptide will spontaneously convert to the trans isomer at a slow rate. The cis to trans conversion is catalyzed by isomerases at a much faster rate than this spontaneous conversion. Proteins with PPIase activity are examples of such isomerases. After isomerization, the peptide is cleaved by chymotrypsin releasing p-nitroaniline which can be monitored at 390 nm. The rate of release is then calculated using a first order rate plus offset equation utilizing the ENZFITTER program (Leatherbarrow, BIOSOFT, Cambridge, United Kingdom).
In a plastic cuvette are added 950 ul of ice cold assay buffer (25 mM HEPES, pH 7.8, 100 mM NaCl), 10 uL of FKBP (2.5 uM in 10 mM Tris-Cl pH 7.5, 100 mM NaCl, 1 mM dithiothreitol), 25 ul of chymotrypsin (50 mg/ml in 1 mM HCl) and 10 ul of the test compound at various concentrations in dimethyl sulphoxide. The reaction is initiated by addition of 5 ul of substrate (Succinyl-Ala-Phe-Pro-Phe-para-nitroanilide, 5 mg/ml in 235 mM LiCl in trifluoroethanol).
The absorbance at 390 nm versus time is monitored for 90 sec using a Beckman DU70 spectrophotometer. The absorbance versus time data files are transferred to an IBM XT computer and the rate constants determined using the commercial Enzfitter program. For each set of data, the uncatalyzed rate of conversion is measured and the uninhibited enzymatic rate determined. The data are expressed as % Inhibition and are calculated as follows: [formula] where kobs is the rate in the presence of a selected test compound, kuncat is the rate in the absence of enzyme, and kuninh is the rate in the presence of enzyme and absence of inhibitor. Data are plotted as percent inhibition versus concentration of inhibitor. The values of the concentration of inhibitor required for 50% inhibition of enzyme activity (IC50) were determined by nonlinear least squares regression analysis.

human T-cells = test: Suppression of Human T-Cell Proliferation Assay (PHA-stimulated, [3H]-thymidine incorporation); assay type: cell-based; conditions: inhibition of [3H]-thymidine incorporation of PHA-stimulated purified human T-cells, 72 hours
Source text: Inhibition of mitogen-induced T-cell proliferation can be used to profile immunosuppressive activity of test compounds. In the description of the assay which follows, mitogen-induced T-cell proliferation was used to test the inhibitory potencies of select compounds of the present invention.
In an assay similar to that described by Bradley in Mishell et al. (Eds.), 1980, Selected Methods in Cellular Immunology, pp 156-161, W. H. Freeman & Co., San Fransisco, Calif., T-cells were stimulated by incubation with phytohemagglutinin (PHA) which binds to cell surface molecules, including the T-cell receptor. This stimulation results in proliferation which can be measured by incorporation of [^3 H]-thymidine into cellular DNA.
Fresh LeukoPaks were obtained from the New York Blood Center, New York, N.Y. The cells, including erythrocytes and leukocytes, were diluted with Hank's Balanced Salt Solution (HBSS) (GIBCO, Grand Island, N.Y.) and layered over Lymphoprep (Nycomed Pharma AS, Oslo, Norway) in sterile 50 ml conical centrifuge tubes. Lymphocytes were isolated at the Hank's/Nycomed interface after centrifugation at 2000×g, 4° C. for 15 min. The lymphocytes were washed with Minimal Essential Medium (GIBCO) containing 2% fetal bovine serum (FBS) (Sigma Chemical Co., St. Louis, Mo.), 1% HEPES buffer (GIBCO) and 1% Penicillin-Stretomycin solution (GIBCO).
T-cells were further purified essentially by sheep erythrocyte (SRBC) rosetting as described by Morimoto et al., 1983, J. Immunol. 130:157. The isolated lymphocytes were adjusted to 2×10^7 cells/ml and 5 ml aliquots of the cell suspension were incubated for 10 minutes at room temperature with 5 ml of a 5% SRBC (Cappel, Organon Technika Corp., West Chester, Pa.) suspension. The cells were gently pelleted by centrifugation at 300 rpm for 10 minutes, followed by a 1 hour incubation at room temperature to allow rosette formation. The cells were gently resuspended,layered over Lymphoprep and centrifuged for 30 minutes at 500×g. The pellet, containing rosetted T-cells and SRBC was treated with ice cold buffered ammonium chloride (GIBCO) to lyse the erythrocytes. T-cells were washed twice with HBSS.
Purified T-cells were resuspended at 2×10^6 cells/ml in complete culture medium composed of RPMI-1640 (Whittaker Bioproducts, Walkerville, Md.) with 10% FBS (Sigma), 2 mM L-glutamine (GIBCO), 1% Penicillin-Streptomycin (GIBCO) and 15 mM HEPES (GIBCO). In 96-well plates (Becton Dickinson, Lincoln Park, N.J.), 0.1 ml aliquots of T-cell suspension were mixed with 0.05 ml of 40 μg/ml PHA-M (Sigma). The compounds of this invention were dissolved in dimethylsulfoxide at 10 mM and various dilutions in complete medium were added in duplicate wells (0.05 ml/well). The plates were incubated at 37° C. in a humidified atmosphere of 5% carbon dioxide and 95% air for 72 hours.
Proliferation was assessed by measurement of [^3 H]-thymidine incorporation. During the last 6 hours of incubation, the cells were pulse labelled with 1 μCi/well of [^3 H]-thymidine (New England Nuclear, Boston, Mass.). The cells were harvested onto glass fiber paper using a plate harvester and the radioactivity incorporated into cellular DNA corresponding to individual wells was measured by standard liquid scintillation counting methods. The mean counts per minute (CPM) of replicate wells was calculated and linear regression analysis of mean CPM versus compound concentration was used to determine the concentration of compound which would inhibit [^3 H]-thymidine incorporation of T-cells by 50% (IC50).

Chain of FKBP (P62942 whole entry): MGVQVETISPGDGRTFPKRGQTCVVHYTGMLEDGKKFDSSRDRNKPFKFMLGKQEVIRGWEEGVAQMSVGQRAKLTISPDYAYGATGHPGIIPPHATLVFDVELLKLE

Compound	IC50 (FKBP)	IC50 (human T-cells)
CC[C@H](C)[C@H](NC(=O)[C@@H]1CCCN1CC(CC(C)C)NC(=O)OC(C)(C)C)C(=O)OCc1ccccc1 (stereo partly drawn) [Example 5, 1-[1-[2-[[(1,1-Dimethylethoxy)carbonyl]amino]-4-methylpentyl]-L-proline]-L- Isoleucine Phenylmethyl Ester]	3 µM	27 µM
COC(=O)[C@H](Cc1ccc(OC)cc1)N(C)C(=O)[C@@H]1CCCN1C[C@H](CC(C)C)NC(=O)OC(C)(C)C [Example 9, 1-Methyl-1-[1-[2-(S)-[[(1,1-dimethylethoxy)carbonyl]amino]-4-methylpentyl]-L-proline]-L-Tyrosine(O-Methyl)Methyl Ester]	> 50 µM	16 µM
CC[C@H](C)[C@H](NC(=O)[C@@H]1CCCN1C[C@H](CC(C)C)NC(=O)[C@H](CC(N)=O)NC(=O)OC(C)(C)C)C(=O)OCc1ccccc1 [Example 10, 1-[1-[2-(S)-[[4-Amino-2-(S)-[[(1,1-dimethylethoxy)-carbonyl]amino]-1,4-dioxobutyl]amino]-4-methylpentyl]-L-proline]-L-isoleucine Phenylmethyl Ester]	0.9 µM	30 µM
CC[C@H](C)[C@H](NC(=O)[C@@H]1CCCCN1C[C@@H](NC(=O)C(C)(C)C)[C@@H](C)CC)C(=O)NCc1ccccc1 [Example 21, 1-[1-[2-(S)-[(2,2-Dimethyl-propionyl)-amino]-3-(S)-methylpentyl]-L-homoproline]-L-isoleucine benzylamide]		0.72 µM
CC[C@H](C)[C@H](NC(=O)[C@@H]1CCCCN1C[C@@H](NC(=O)CC(C)(C)C)[C@@H](C)CC)C(=O)NCc1ccccc1 [Example 22, 1-[1-[2-(S)-[(3,3-dimethyl-butyryl)-amino]-3-(S)-methylpentyl]-L-homoproline]-L-isoleucine benzylamide]		1 µM
CC[C@H](C)[C@H](NC(=O)[C@@H]1CCCCN1C[C@@H](NC(=O)CC(C)C)[C@@H](C)CC)C(=O)NCc1ccccc1 [Example 23, 1-[1-[2-(S)-[(3-methyl-butyryl)-amino]-3-(S)-methylpentyl]-L-homoproline]-L -isoleucine benzylamide]		0.9 µM
CCCC(=O)N[C@H](CN1CCCC[C@H]1C(=O)N[C@H](C(=O)NCc1ccccc1)[C@@H](C)CC)[C@@H](C)CC [Example 24]		1.7 µM

The next lines start with results.

IC50 (FKBP)	Compound	IC50 (human T-cells)
8.4 µM	CC[C@H](C)[C@H](NC(=O)[C@@H]1CCCN1CC(CC(C)C)NC(=O)[C@H](CC1CCCCC1)NC(=O)OC(C)(C)C)C(=O)OCc1ccccc1 (stereo partly drawn) [Example 11, 1-[1-[2-[[3-Cyclohexyl-2-(S)-[[(1,1-dimethylethoxy)-carbonyl]amino]-1-oxopropyl]amino]-4-methylpentyl]-L-proline]-L-isoleucine Phenylmethyl Ester]	< 6 µM
2.4 µM	CC[C@H](C)[C@H](NC(=O)[C@@H]1CCCN1C[C@H](CC(C)C)NC(=O)[C@@H](N)CC(N)=O)C(=O)OCc1ccccc1 [Example 12]	< 6 µM
1.3 µM	CC[C@H](C)[C@H](NC(=O)[C@@H]1CCCN1C[C@H](CC(C)C)NC(=O)[C@@H](N)CC1CCCCC1)C(=O)OCc1ccccc1 [Example 13, 1-[1-[2-(S)-[[2-(S)-amino-3-cyclohexyl-1-oxopropyl]-amino]-4-methylpentyl]-L-proline]-L-isoleucine Phenylmethyl Ester]	< 6 µM
2.5 µM	CC[C@H](C)[C@H](NC(=O)[C@@H]1CCCN1C[C@H](CC(C)C)NC(=O)[C@H](CC(N)=O)NC(=O)[C@@H](N)Cc1ccccc1)C(=O)OCc1ccccc1 [Example 15, 1-[1-[2-(S)-[[1-[2-(S)-Amino-1-Oxo-3-phenylpropyl]-L-asparaginyl]amino]-4-methylpentyl]-L-proline]-L-isoleucine Phenylmethyl Ester]	
